Measured values: patent publication US12054509B2, “Antimicrobial compounds, compositions, and uses thereof” (Lakewood Amedex, Inc., priority 2017, dated 2024)

Experiments:
[1] = system: E. coli; assay: MIC broth microdilution (CLSI) at incremental pH, E. coli; type: cell-based; conditions: Escherichia coli
Protocol: (§1) MIC testing is conducted using the broth (Mueller Hinton Broth) microdilution procedures relevant to each organism group as established by the Clinical and Laboratory Standards Institute (CLSI; 3-7). MIC plates are prepared in accordance with CLSI (3-7). To prepare the test plates, automated liquid handlers are used to conduct serial dilutions and liquid transfers. Automated liquid handlers utilized in this study include the Multidrop 384 (Labsystems, Helsinki, Finland) and the Biomek 2000 (Beckman Coulter, Fullerton CA). The solution is diluted to desired pH using 1 M Citric Acid or 1 M NaOH buffer. A standardized inoculum of each test organism is prepared per CLSI methods (3, 5-7) to equal a 0.5 McFarland standard in the appropriate media followed by an additional 1:20 dilution (1:10 for anaerobes).
(§2) The plates are then inoculated with 10 μL of the diluted 0.5 McFarland suspension using the Biomek 2000 from low to high drug concentration, resulting in a final concentration of approximately 5×10^5 CFU/mL per well. An un-inoculated plate is incubated for the purpose of assessing solubility of the drug in the test media. The plates are stacked 3 to 4 high, covered with a sterile lid on the top plate, and incubated for 18 to 24 hours according to CLSI. The MIC is recorded as the lowest concentration of respective compound that inhibited visible growth of the organism.

[2] = Solubility; type: physicochemical; conditions: unit inferred
[3] = system: E. coli; assay: MIC in lysogeny broth (LB) at pH 4; type: cell-based; conditions: Escherichia coli
Protocol: (§3) The MICs are also determined using lysogeny broth (LB) at pH 4 as the growth medium. Under these conditions, Nu-8 is active against E. coli and P. aeruginosa with MICs of 54 and 27 mg/mL, respectively.

[4] = system: P. aeruginosa; assay: MIC in lysogeny broth (LB) at pH 4; type: cell-based; conditions: Pseudomonas aeruginosa
Protocol: as §3

[5] = system: Citrobacter species; assay: MIC at pH 3.5 (CLSI, Mueller-Hinton broth); type: cell-based; conditions: 5 isolates
Protocol: (§4) Bacterial strains evaluated in this study include Escherichia coli, Klebsiella spp, Serratia marcescens, Proteus mirabilis/vulgaris, Citrobacter spp, Providencia spp, Morganella morganii, Pseudomonas aeruginosa, Staphylococcus aureus (MRSA only), and Enterococcus faecalis. Nu-8 test solutions are adjusted to pH 3.5 with citric acid, and MIC is evaluated per the CLSI methods in Mueller-Hinton broth supplemented accordingly to facilitate growth of specific strains.

[6] = system: Staphylococcus aureus (MRSA); assay: MIC at pH 3.5 (CLSI, Mueller-Hinton broth); type: cell-based; conditions: 20 isolates
Protocol: as §4

[7] = system: Providencia species; assay: MIC at pH 3.5 (CLSI, Mueller-Hinton broth); type: cell-based; conditions: 5 isolates
Protocol: as §4

[8] = system: Pseudomonas aeruginosa; assay: MIC at pH 3.5 (CLSI, Mueller-Hinton broth); type: cell-based; conditions: 20 isolates
Protocol: as §4

[9] = system: Serratia marcescens; assay: MIC at pH 3.5 (CLSI, Mueller-Hinton broth); type: cell-based; conditions: 5 isolates
Protocol: as §4

[10] = system: Morganella morganii; assay: MIC at pH 3.5 (CLSI, Mueller-Hinton broth); type: cell-based; conditions: 5 isolates
Protocol: as §4

[11] = system: Klebsiella pneumoniae; assay: MIC at pH 3.5 (CLSI, Mueller-Hinton broth); type: cell-based; conditions: 5 isolates
Protocol: as §4

[12] = system: Proteus mirabilis/vulgaris; assay: MIC at pH 3.5 (CLSI, Mueller-Hinton broth); type: cell-based; conditions: 5 isolates
Protocol: as §4

[13] = system: Enterococcus faecalis; assay: MIC at pH 3.5 (CLSI, Mueller-Hinton broth); type: cell-based; conditions: 5 isolates
Protocol: as §4

[14] = system: Escherichia coli; assay: MIC at pH 3.5 (CLSI, Mueller-Hinton broth); type: cell-based; conditions: 5 isolates
Protocol: as §4

[15] = system: bacterial strains; assay: MIC at pH 3.5 in human and mouse urine; type: cell-based
Text: Bacterial strains evaluated in this study include Escherichia coli, Klebsiella spp, Serratia marcescens, Proteus mirabilis/vulgaris, Citrobacter spp, Providencia spp, Morganella morganii, Pseudomonas aeruginosa, Staphylococcus aureus (MRSA only), and Enterococcus faecalis. […]

[16] = system: Pseudomonas aeruginosa; assay: MIC against a single isolate (Example 26); type: cell-based; conditions: single isolate, read-out: P. aeruginosa MIC
Protocol: as §4
(§5) MIC was determined as per Example 9 using LAI-101, LAI-102, Nu-10, LAI-105, LAI-106, Nu-3, and Nu-8 against a single isolate of Escherichia coli. Pseudomonas aeruginosa, Staphylococcus aureus (MRSA only), and Candida Albicans. For all microbe species, the LAI-101, LAI-102, Nu-10, LAI-105, and LAI-106 all perform at least as well as, and in many experiments better than, Nu-8 and Nu-3, which are both already quite active compounds.

[17] = system: Staphylococcus aureus (MRSA only); assay: MIC against a single isolate (Example 26); type: cell-based; conditions: single isolate, read-out: S. aureus MIC
Protocol: as §4, §5

[18] = system: Candida Albicans; assay: MIC against a single isolate (Example 26); type: cell-based; conditions: single isolate, read-out: C. albicans MIC
Protocol: as §4, §5

[19] = system: Escherichia coli; assay: MIC against a single isolate (Example 26); type: cell-based; conditions: single isolate, read-out: E. coli MIC
Protocol: as §4, §5

[20] = system: Streptococcus pneumoniae (PRSP); assay: MIC at pH 3.5 (CLSI, Mueller-Hinton broth); type: cell-based
[21] = system: P. aeruginosa; assay: MIC broth microdilution (CLSI) at incremental pH, P. aeruginosa; type: cell-based; conditions: Pseudomonas aeruginosa
Protocol: as §1, §2

CCCCOP(=O)(O)OC[C@H]1O[C@@H](n2ccc(N)nc2=O)C[C@@H]1OP(=O)(O)OCCCC [Nu-8, sodium ((2R,3S,5R)-5-(4-amino-2-oxopyrimidin-1(2H)-yl)-3-((butoxyoxidophosphor-yl)oxy)tetrahydrofuran-2-yl)methyl butyl phosphate] gave an MIC ([1]; pH 1) of 9.8 mg/mL, an MIC ([1]; pH 3) of 37.5 mg/mL and an MIC ([1]; pH 4) of 75 mg/mL. For the same molecule, the MIC ([1]; pH 5) was greater than 75 mg/mL, the MIC ([1]; pH 7) was greater than 75 mg/mL and the solubility [2] was 137 mg/mL. The MIC [3] was 54 mg/mL, the MIC [4] was 27 mg/mL and the MIC [5] was 18.8 to 37.5 mg/mL. The MIC [6] was 9.38 to 37.5 mg/mL, the MIC50 [6] was 18.8 mg/mL and the MIC90 [6] was 37.5 mg/mL. It also gave an MIC [7] of 9.38 to 37.5 mg/mL, an MIC [8] of 9.38 to 18.8 mg/mL and an MIC50 [8] of 18.8 mg/mL. It also gave an MIC90 [8] of 18.8 mg/mL, an MIC [9] of 37.5 to 75 mg/mL and an MIC [10] of 18.8 mg/mL. The MIC [11] was 37.5 to 75 mg/mL, the MIC [12] was 4.69 to 18.8 mg/mL and the MIC [13] was 4.69 to 18.8 mg/mL. For the same molecule, the MIC [14] was 37.5 mg/mL, the “MICs in human and mouse urine” value [15] was “comparable to those of Nu-8 in Mueller Hinton broth” and the MIC [16] was greater than 50 mg/mL. The MIC [17] was greater than 50 mg/mL, the MIC [18] was greater than 50 mg/mL and the MIC [19] was greater than 50 mg/mL. It also gave an MIC [20] of 9.38 to 18.8 mg/mL, an MIC ([21]; pH 1) of 9.38 mg/mL and an MIC ([21]; pH 3) of 18.8 mg/mL. For the same molecule, the MIC ([21]; pH 4) was 37.5 mg/mL, the MIC ([21]; pH 5) was 75 mg/mL and the MIC ([21]; pH 7) was greater than 75 mg/mL.
